Several values for one entry are separate records, joined by “and”; a condition that tells them apart may be missing. Equal values may be shown once.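 Where inhibition never reached the appropriate level, the endpoint shown equals the highest concentration tested. Otherwise, values were interpolated linearly from a five-concentration, 48-hour dose response in 96-well plates. The concentration for 50% growth inhibition is given as GI50. The concentration for full growth arrest is given as TGI.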
Tests used:
Test in all cases: NCI anticancer screen, dose series, 48 h
[1] = test system: 786-0 renal
[2] = test system: HCC-2998 colon
[3] = test system: HT29 colon
[4] = test system: M14 melanoma
[5] = test system: NCI-H226 lung
[6] = test system: OVCAR-5 ovarian
[7] = test system: SK-MEL-2 melanoma
[8] = test system: SK-MEL-28 melanoma
[9] = test system: SW-620 colon
[10] = test system: NCI/ADR-RES ovarian

Structure (SMILES)	TGI [1]	TGI [2]	TGI [3]	TGI [4]	TGI [5]	TGI [6]	TGI [7]	TGI [8]	TGI [9]	GI50 [1]	GI50 [3]	GI50 [4]	GI50 [5]	GI50 [10]	TGI [10]	GI50 [6]	GI50 [7]	GI50 [8]	GI50 [9]	GI50 [2]
COc1ccc2nc(C(=O)c3ccccc3)c(C)cc2c1	38.1 µM	26.3 µM	11 µM	13.4 µM	> 86 µM	> 100 µM	> 100 µM	> 62.2 µM	> 37.4 µM											
COC1CC(O)C(OC(=O)c2ccccc2)C(C)O1 (stereo not drawn)	> 100 µM	> 100 µM	> 100 µM	> 100 µM	> 100 µM	> 100 µM		> 100 µM	> 100 µM											
Cc1ccc2nc(NC(=O)C(=O)C(C#N)c3ccc(Cl)cc3)sc2c1 (stereo not drawn)	> 50 µM	> 50 µM	> 50 µM	> 50 µM	> 50 µM	> 50 µM	> 50 µM	> 50 µM	> 50 µM											
COc1ccccc1NC(=O)C1=C(C)NC(C)=C(C(=O)Nc2ccccc2OC)C1/C=C/c1ccccc1	> 100 µM	> 100 µM	> 100 µM	> 100 µM	> 100 µM	> 100 µM	> 100 µM	> 100 µM	> 100 µM											
c1ccc(OCCC[P+](c2ccccc2)(c2ccccc2)c2ccccc2)cc1	20 µM		9.21 µM	18.1 µM	30.5 µM	> 100 µM	4.88 µM	13.4 µM	> 100 µM	4.14 µM	0.984 µM	2.53 µM	2.3 µM	> 100 µM	> 100 µM	4.09 µM	1.56 µM	1.09 µM	2.22 µM	
Cc1cc(-c2c(F)cc3c4nn([C@H]5CC[C@@H](N(C)C)CC5)c(=O)c-4cn(C4CC4)c3c2F)cc(C)n1	0.0526 µM and 0.363 µM	0.108 µM and 1.01 µM	1.1 µM		0.118 µM and 0.586 µM	14.2 µM	0.256 µM and 1.94 µM	0.368 µM and 3.34 µM	1.36 µM	0.0202 µM		0.0539 µM	0.0368 µM				0.0735 µM	0.0689 µM		0.0369 µM
CCOC(=O)/C(=C/c1cccc(Cl)c1)N(CC)CC	> 100 µM	> 100 µM	> 100 µM	> 100 µM	> 100 µM	> 100 µM	68.5 µM	> 100 µM	> 100 µM											
O=C(O)/C(Cc1ccnc2ccccc12)=N\O	> 100 µM		> 100 µM	> 100 µM	> 100 µM	> 100 µM	> 100 µM	> 100 µM	> 100 µM						> 100 µM					
C/C(CN1C(=O)c2ccccc2C1=O)=N\NS(=O)(=O)c1cccc(C(=O)O)c1	> 100 µM	> 100 µM	> 100 µM	> 100 µM	> 100 µM	> 100 µM	> 100 µM	> 100 µM	> 100 µM											
CC1=C(C(=O)Nc2ccccc2)C(c2ccccc2Cl)C(C(=O)Nc2ccccc2)=C(C)N1	42.1 µM	43.5 µM	37.9 µM	33.3 µM	59 µM	61.2 µM	33.1 µM	61.9 µM	76.2 µM											
